Tests used:
[1] = cited from earlier work
HCV-NS5b = target: T1, HCV-NS5b (Hepatitis C virus genotype 1b, UniProt Q9WMX2); assay: HCV-NS5b enzyme assay (incorporation of radiolabeled UTP); type: biochemical; conditions: for inhibition at 100 µM: read-out: % inh@100, enzyme inhibition at compound concentration of 100 uM
T1 construct: (His)6 (C); made in house; host or cells: XL-1 cells (E. coli), IPTG-inducible plasmid, nickel-NTA purification
How it was run: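 Percent inhibition, background-corrected against uninhibited control, was measured at 100 and 33 uM compound. Incorporation of [3H]-UTP (10 μM each NTP) into biotinylated HCV-template RNA, 37° C for 2 h, pH 7.5, scintillation proximity. Enzyme: C-terminally truncated (21 aa), His6-tagged NS5b from XL-1.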

[2] = enzyme inhibition at compound concentration of 33 uM

SMILES | inhibition at 33 µM (HCV-NS5b; [2]) | inhibition at 100 µM (HCV-NS5b) | other results
NC(=O)c1ncn([C@@H]2O[C@H](CO)[C@@H](O)[C@H]2O)n1 [Ribavirin, ribavirin] |  |  | teratogenicity / embryotoxicity ([1]; human, in vivo): teratogenic and embryotoxic; patients with significant hemolysis ([1]; patients treated at currently recommended doses): 10-20%
COc1ccc(-c2ccc(F)c(F)c2)c(-c2ccc3cc(-c4nc5cc(C(=O)O)ccc5n4C4CCCCC4)ccc3n2)c1 [Compound 560, 1-Cyclohexyl-2-[2-(3′,4′-difluoro-4-methoxy-biphen-2-yl)-quinolin-6-yl]-1H-benzoimidazole-5-carboxylic acid] | 101% | 101% | 
O=C(c1ccc(-c2ccc(Cl)cc2)c(-c2ccc3cc(-c4nc5ccccc5n4C4CCCCC4)ccc3n2)c1)N1CCCC1 [Compound 540] |  |  | % inh@33 (HCV-NS5b; [2]): 91.13%; % inh@100 (HCV-NS5b; enzyme inhibition at compound concentration of 100 uM): 95.05%
Nc1cc(-c2ccccc2)sc1-c1ccc2cc(-c3nc4cc(C(=O)O)ccc4n3C3CCCCC3)ccc2n1 [Compound 480, 2-[2-(3-amino-5-phenyl-thiophen-2-yl)-quinolin-6-yl]-1-cyclohexyl-1H-benzoimidazole-5-carboxylic acid] | 101% | 104% | 
CC(C)[C@H](NC(=O)c1ccc2c(c1)nc(-c1ccc3nc(-c4ccccc4)cnc3c1)n2C1CCCCC1)C(=O)O [Compound 517, 2-{[1-Cyclohexyl-2-(2-phenyl-quinoxalin-6-yl)-1H-benzoimidazole-5-carbonyl]-amino}-3-methyl-butyric acid] | 81% | 97.8% | 
O=C(O)CC[C@H](NC(=O)c1ccc2c(c1)nc(-c1ccc3nc(-c4ccccc4)ccc3c1)n2C1CCCCC1)C(=O)O [Compound 237, 2-{[1-Cyclohexyl-2-(2-phenyl-quinolin-6-yl)-1H-benzoimidazole-5-carbonyl]-amino}-pentanedioic acid] | 79.7% | 95.6% | 
O=C(O)c1ccc2c(c1)nc(-c1ccc3nc(-c4cccc(-c5ccc(Cl)cc5)c4)ccc3c1)n2C1CCCCC1 [Compound 483, 2-[2-(4′-chloro-biphenyl-3-yl)-quinolin-6-yl]-1-cyclohexyl-1H-benzoimidazole-5-carboxylic acid] | 102% | 99.4% | 
COc1ccc(-c2cccc([N+](=O)[O-])c2)c(-c2ccc3cc(-c4nc5cc(C(=O)O)ccc5n4C4CCCCC4)ccc3n2)c1 [Compound 420, 1-cyclohexyl-2-[2-(4-methoxy-3′-nitro-biphen-2-yl)-quinolin-6-yl]-1H-benzoimidazole-5-carboxylic acid] | 98.3% | 98.3% | 
